Data as given in the NIST ThermoML archive (doi:10.1016/j.fluid.2007.07.039).

Test: xn = mol fraction of the nth substance listed
Details: Liquid, Taylor dispersion method, x1 = 0

binary diffusion coefficient (313.16 K, 15000 kPa)	binary diffusion coefficient (313.16 K, 20000 kPa)	binary diffusion coefficient (313.16 K, 25000 kPa)	binary diffusion coefficient (313.16 K, 30000 kPa)	binary diffusion coefficient (313.16 K, 35000 kPa)	binary diffusion coefficient (323.16 K, 15000 kPa)	binary diffusion coefficient (323.16 K, 20000 kPa)	binary diffusion coefficient (323.16 K, 25000 kPa)	binary diffusion coefficient (323.16 K, 30000 kPa)	binary diffusion coefficient (323.16 K, 35000 kPa)	binary diffusion coefficient (333.16 K, 15000 kPa)	binary diffusion coefficient (333.16 K, 20000 kPa)	binary diffusion coefficient (333.16 K, 25000 kPa)	binary diffusion coefficient (333.16 K, 30000 kPa)	binary diffusion coefficient (333.16 K, 35000 kPa)	SMILES
1.03e-08 m2/s	9.44e-09 m2/s	8.69e-09 m2/s	8.07e-09 m2/s	7.69e-09 m2/s	1.28e-08 m2/s	1.06e-08 m2/s	9.71e-09 m2/s	8.94e-09 m2/s	8.54e-09 m2/s	1.51e-08 m2/s	1.21e-08 m2/s	1.11e-08 m2/s	9.95e-09 m2/s	9.47e-09 m2/s	C=Cc1cccc(C=C)c1 [1,3-diethenylbenzene] + O=C=O
9.46e-09 m2/s	8.66e-09 m2/s	7.92e-09 m2/s	7.48e-09 m2/s	7.15e-09 m2/s	1.15e-08 m2/s	1.01e-08 m2/s	9.08e-09 m2/s	8.52e-09 m2/s	7.98e-09 m2/s	1.28e-08 m2/s	1.19e-08 m2/s	1.06e-08 m2/s	9.45e-09 m2/s	8.98e-09 m2/s	COc1ccccc1Br [1-bromo-2-methoxybenzene] + O=C=O
1.02e-08 m2/s	9.27e-09 m2/s	8.69e-09 m2/s	8.01e-09 m2/s	7.68e-09 m2/s	1.25e-08 m2/s	1.05e-08 m2/s	9.89e-09 m2/s	9.14e-09 m2/s	8.65e-09 m2/s	1.43e-08 m2/s	1.23e-08 m2/s	1.1e-08 m2/s	1.03e-08 m2/s	9.67e-09 m2/s	COc1ccccc1F [2-fluoroanisole] + O=C=O

SMILES	binary diffusion coefficient (313.16 K, 15000 kPa)	binary diffusion coefficient (313.16 K, 20000 kPa)	binary diffusion coefficient (313.16 K, 25000 kPa)	binary diffusion coefficient (313.16 K, 30000 kPa)	binary diffusion coefficient (313.16 K, 35000 kPa)	binary diffusion coefficient (323.16 K, 15000 kPa)	binary diffusion coefficient (323.16 K, 20000 kPa)	binary diffusion coefficient (323.16 K, 25000 kPa)	binary diffusion coefficient (323.16 K, 30000 kPa)	binary diffusion coefficient (323.16 K, 35000 kPa)	binary diffusion coefficient (333.16 K, 15000 kPa)	binary diffusion coefficient (333.16 K, 20000 kPa)	binary diffusion coefficient (333.16 K, 25000 kPa)	binary diffusion coefficient (333.16 K, 30000 kPa)	binary diffusion coefficient (333.16 K, 35000 kPa)
C=CCc1ccccc1 [2-propenylbenzene] + O=C=O	1.03e-08 m2/s	9.11e-09 m2/s	8.93e-09 m2/s	8.29e-09 m2/s	7.67e-09 m2/s	1.23e-08 m2/s	1.12e-08 m2/s	1e-08 m2/s	9.35e-09 m2/s	9.01e-09 m2/s	1.41e-08 m2/s	1.22e-08 m2/s	1.15e-08 m2/s	1.05e-08 m2/s	9.87e-09 m2/s
